Measurements: patent publication US20130096067A1, “DROSOPHILA TUMOR STEM CELL MODEL AND USES THEREOF” (priority 2011, published 2013)
Peptide text beside a SMILES is read from it. * marks the point of attachment. Boc = CC(C)(C)OC(=O)*

Tested on: Raf-1^gof intestinal tumors
Conditions: for Log2 (fold) of luciferase activity relative to DMSO controls / Fold (luciferase activity relative to DMSO controls): ICCB compounds fed in vials to flies with one-day old Raf-1^gof tumors; for Log2 (fold) of luciferase activity relative to DMSO controls / Fold (luciferase activity relative to DMSO controls) / Log2 (fold) (luciferase activity, log2 of the fold difference relative to DMSO controls) / Fold (luciferase activity, fold difference relative to DMSO controls): assessed three days later; for Fold (luciferase activity relative to DMSO controls) / Fold (luciferase activity, fold difference relative to DMSO controls): averaged from multiple wells; for Log2 (fold) (luciferase activity, log2 of the fold difference relative to DMSO controls) / Fold (luciferase activity, fold difference relative to DMSO controls): screen of 480 ICCB compounds in vials, compounds fed to flies with one-day old Raf-1^gof tumors, esg-Gal4 luciferase; for Fold: Table 3 summary of hits, Screen ICCB, luciferase relative to DMSO, fed three consecutive days in vials
For Fold (luciferase activity relative to DMSO controls) in this document: test concentration or dose not given here.
For Fold (luciferase activity, fold difference relative to DMSO controls) in this document: test concentration or dose not given here.
For Log2 (fold) (luciferase activity, log2 of the fold difference relative to DMSO controls) in this document: test concentration or dose not given here.
For Log2 (fold) of luciferase activity relative to DMSO controls in this document: test concentration or dose not given here.

Row | Compound | Log2 (fold) of luciferase activity relative to DMSO controls | Fold (luciferase activity relative to DMSO controls) | Log2 (fold) (luciferase activity, log2 of the fold difference relative to DMSO controls) | Fold (luciferase activity, fold difference relative to DMSO controls) | Fold
1 | Nc1ncnc2c1nc(Br)n2C1O[C@H]2COP(=O)(O)O[C@@H]2[C@@H]1O (stereo partly drawn) [Bromo-cAMP [8-Bromo-cAMP]] | −0.045 | 0.969 fold | – | – | –
2 | LY-171883 | 0.168 | 1.124 fold | – | – | –
3 | Cc1ccc2c(c1)C(=O)C1(O)CCN(c3ccccc3)C1=N2 (stereo not drawn) [Blebbistatin] | 0.196 | 1.146 fold | – | – | –
4 | Cn1cnc2c(NCc3ccccc3)nc(NCCO)nc21 [olomoucine] | – | – | −0.406 | 0.755 | –
5 | C[C@]12CC[C@@H]3c4ccc(O)cc4CC[C@H]3[C@@H]1CC[C@@H]2O [ESTRADIOL] | −0.160 | 0.895 fold | – | – | –
6 | N#Cc1c(-c2ccccc2)no[n+]1[O-] [Furoxan] | – | – | −0.280 | 0.823 | –
7 | CC[C@@]1(O)C(=O)OCc2c1cc1n(c2=O)Cc2cc3cc(O)ccc3nc2-1 [10-hydroxycamptothecin, reference compound] | – | – | −0.930 | 0.525 | 0.525 fold
8 | CCCCC/C=C\C/C=C\CCCCCCCC(=O)O [LINOLEIC ACID] | 0.024 | 1.017 fold | – | – | –
9 | C[C@@H]1C[C@H]2[C@@H]3CCC4=CC(=O)C=C[C@]4(C)[C@@]3(F)[C@@H](O)C[C@]2(C)[C@@]1(O)C(=O)CO [dexamethasone] | – | – | −0.245 | 0.844 | –
10 | CCCCCCCCCCCCCCCC(=O)NCCO [PALMITYLETHANOLAMIDE] | – | – | −0.486 | 0.714 | –
11 | CCCCC[C@H](O)/C=C/C=C\C=C\C=C\[C@@H](O)[C@@H](O)CCCC(=O)O [LIPOXIN A4] | 0.046 | 1.033 fold | – | – | –
12 | CCCCC/C=C\C/C=C\C/C=C\C/C=C\CCCCCC(=O)NCCO [ANANDAMIDE (22:4, n-6)] | 0.007 | 1.005 fold | – | – | –
13 | CCCCC/C=C\C/C=C\C/C=C\C/C=C\CCCC(=O)OC(CO)CO [2-ARACHIDONOYLGLYCEROL] | 0.119 | 1.086 fold | – | – | –
14 | CC(C)[C@H](NC(=O)CNC(=O)OC(C)(C)C)C(=O)N[C@H](C=O)C(C)C [Boc-GVV-CHO] (Boc-Gly-Val-Val-aldehyde) | – | – | −0.696 | 0.617 | –
15 | CCOC(=O)C1=C[C@]2(CC)CCCN3CCc4c(n1c1ccccc41)[C@@H]32 [vinpocetine] | 0.280 | 1.214 fold | – | – | –
16 | O=C([O-])CCC/C=C\CC1C(O)CC(O)C1/C=C/C(O)COc1cccc(Cl)c1.[Na+] (stereo not drawn) [CLOPROSTENOL Na] | 0.101 | 1.073 fold | – | – | –
17 | N#C/C(=C\c1ccc(O)c(O)c1)C(=O)OC/C=C/c1ccccc1 [CDC] | – | – | −0.360 | 0.779 | –
18 | CCCCC[C@H](O)/C=C/[C@@H]1[C@H]2C/C(=C/CCCC(=O)O)C[C@H]2C[C@H]1O [CARBACYCLIN] | – | – | −0.283 | 0.822 | –
19 | O=S(=O)(c1cccc2c(Cl)cccc12)N1CCCNCC1 [ML9] | – | – | −0.458 | 0.728 | –
20 | CCOc1ccc(-c2nc3ccc(-c4nc5ccc(N6CCN(C)CC6)cc5[nH]4)cc3[nH]2)cc1 | – | – | −0.592 | 0.663 | –
21 | CN(CCc1ccc(Cl)c(Cl)c1)CC(O)COc1ccc(NS(C)(=O)=O)cc1 (stereo not drawn) [AM 92016] | – | – | −0.341 | 0.789 | –
22 | COC(=O)[C@@H](N)CCCNC(=N)N[N+](=O)[O-] [L-NAME] | – | – | −0.446 | 0.734 | –
23 | CCCCCCCCCCCCCCCCOC[C@@H](O)COP(=O)([O-])OCC[N+](C)(C)C [LYSO-PAF C16] | −0.087 | 0.941 fold | – | – | –
24 | CC(=O)N[C@@H](CSCC=C(C)CCC=C(C)CCC=C(C)C)C(=O)O [acetyl (N)-s-farnesyl-1-cysteine] | −0.036 | 0.975 fold | – | – | –

Row | Compound | Log2 (fold) of luciferase activity relative to DMSO controls | Fold (luciferase activity relative to DMSO controls) | Log2 (fold) (luciferase activity, log2 of the fold difference relative to DMSO controls) | Fold (luciferase activity, fold difference relative to DMSO controls) | Fold
25 | Cc1c(C(=O)NN2CCCCC2)nn(-c2ccc(Cl)cc2Cl)c1-c1ccc(I)cc1 [AM-251] | 0.065 | 1.046 fold | – | – | –
26 | C=C1O[C@@](CO)(n2cnc3c(N)ncnc32)[C@H](O)[C@@H]1O [decoyinine] | – | – | −0.298 | 0.813 | –
27 | ICRF-193 [reference compound] | – | – | −1.459 | 0.364 | 0.364 fold
28 | CC/C=C\C/C=C\C/C=C\C/C=C\C/C=C\C/C=C\CCC(=O)O [DOCOSAHEXAENOIC ACID (22:6 n-3)] | – | – | −0.248 | 0.842 | –
29 | COc1ccc(CCN(C)CCc2ccc(OC)c(OC)c2)cc1OC [YS035] | −0.152 | 0.900 fold | – | – | –
30 | CCCCCCCCCCCCC/C=C/[C@@H](O)[C@H](CO)NC(=O)CCCCCCC [C8 CERAMIDE] | – | – | −0.427 | 0.744 | –
31 | CC(N/C(=N\C#N)Nc1ccncc1)C(C)(C)C (stereo not drawn) | – | – | −0.591 | 0.664 | –
32 | CCCCCCOC(=O)[C@]1(O)C[C@@H]2O[C@@]1(C)n1c3ccccc3c3c4c(c5c6ccccc6n2c5c31)C(=O)NC4 [KT-5720] | – | – | −0.246 | 0.843 | –
33 | COC(=O)[C@@]1(O)C[C@H]2O[C@]1(C)n1c3ccccc3c3c4c(c5c6ccccc6n2c5c31)C(=O)NC4 [K252A] | 0.364 | 1.287 fold | – | – | –
34 | CC1(COc2ccc(CC3SC(=O)NC3=O)cc2)CCCCC1 (stereo not drawn) [CIGLITAZONE] | 0.038 | 1.027 fold | – | – | –
35 | C=C1CCC(O)C/C1=C\C=C1\CCCC2(C)C1CCC2C(C)CCC(O)C(C)(C)O (stereo not drawn) [24,25-DIHYDROXYVITAMIN D3] | – | – | −0.363 | 0.777 | –
36 | CO[C@H](C/C=C\C=C\CC/C=C/C[C@H](C)/C=C/C(=C\C(=O)O)CC(=O)O)/C(C)=C\C=C(/C)C(=O)O [bongkrekic acid] | −0.102 | 0.932 fold | – | – | –
37 | CC(C)NCC(O)c1ccc(N)c(C#N)c1 (stereo not drawn) [CIMATEROL] | – | – | −0.598 | 0.661 | –
38 | CCCCC/C=C\C=C\[C@@H](O)CCCCCCCC(=O)O [9(S)-HODE] | – | – | −0.398 | 0.759 | –
39 | CCCCCCCCCCCCCCCCOC[C@H](COP(=O)([O-])OCC[N+](C)(C)C)OC(C)=O [PAF C16] | −0.190 | 0.876 fold | – | – | –
40 | Cc1cccc(CCN2CCC(C(=O)c3ccc(NS(C)(=O)=O)cc3)CC2)n1 [E-4031] | −0.195 | 0.874 fold | – | – | –
41 | CCCCC/C=C\C[C@@H](O)/C=C/c1cccc(C[C@@H](O)CCCCO)n1 [U-75302] | −0.041 | 0.972 fold | – | – | –
42 | O=C1CCc2c(ccc3ccccc23)O1 [Splitomycin] | – | – | −0.241 | 0.846 | –
43 | Oc1cc2c(cc1O)CN(C(=S)NCCc1ccc(Cl)cc1)CCC2 [capsazepine] | −0.030 | 0.979 fold | – | – | –
44 | COc1ccc2c(c1)CC[C@@H]1[C@@H]2CC[C@]2(C)[C@@H](NCCCCCCN3C(=O)C=CC3=O)CC[C@@H]12 [U73122] | – | – | −0.865 | 0.549 | –
45 | CC(C)c1cccc(=O)c(O)c1 [Hinokitiol] | – | – | −0.240 | 0.847 | –
46 | C=C[C@@]1(C)CC(=O)[C@]2(O)[C@@]3(C)[C@@H](O)CCC(C)(C)[C@@H]3[C@H](O)[C@H](OC(C)=O)[C@@]2(C)O1 [forskolin] | – | – | −0.449 | 0.732 | –
47 | O=C(O)CCC/C=C\C[C@H]1C(=O)C[C@@H](O)[C@@H]1/C=C/[C@@H](O)CCc1ccccc1 [17-PHENYL-TRINOR-PGE2] | – | – | −0.253 | 0.839 | –
